Data on 19 molecules can be found in patent US20240228488A1 (TAKEDA PHARMACEUTICAL COMPANY LIMITED, priority 2021, published 2024).

The target in test [1] is human activated kallikrein enzyme (Homo sapiens, UniProt P03952). Kind of test: Plasma kallikrein inhibition, fluorogenic PFR-AMC substrate, 500 pM activated kallikrein format. Format: biochemical. The settings on record: 500 pM activated kallikrein, 300 uM PFR-AMC, 30 min preincubation, 10 min reaction; read-out: Primary Dose Response Assay: Average EC50. In outline:
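Fluorescence (ex 380/em 460 nm) is read after 10 min of 300 uM PFR-AMC turnover by 500 pM enzyme at RT. Compounds sit with enzyme for 30 min beforehand. Buffer is Tris (pH 7.5) with EDTA, NaCl, PEG-400 and Triton X-100; EC50 values are banded.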

Test [2] has as its target T1, plasma kallikrein (Homo sapiens, UniProt P03952).
T1 construct: from tissue
Kind of test: Neat human plasma assay, FXIIa contact pathway-activated, PFR-AMC substrate. The format is biochemical. The settings on record: citrated human plasma 78% final, 10 nM human FXIIa, 100 μM PFR-AMC; read-out: Human Plasma Assay: IC90. In outline:
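Compound inhibition of plasma kallikrein measured as PFR-AMC (100 μM) cleavage rate over 5 min at room temperature in 78% citrated human plasma activated with 10 nM FXIIa (Tris pH 7.5 buffer). IC50/IC90 from 4-parameter fit of rate versus inhibitor concentration.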

T1 sequence (P03952 391-638 limits assumed): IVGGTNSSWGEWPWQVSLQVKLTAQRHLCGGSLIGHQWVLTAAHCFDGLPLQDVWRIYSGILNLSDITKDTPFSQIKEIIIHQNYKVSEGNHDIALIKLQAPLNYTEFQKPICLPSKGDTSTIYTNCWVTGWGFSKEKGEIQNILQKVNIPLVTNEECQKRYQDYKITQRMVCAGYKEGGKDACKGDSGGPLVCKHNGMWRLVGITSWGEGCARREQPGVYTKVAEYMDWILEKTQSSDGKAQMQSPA
T1 sequence (P03952 20-390 partner limits assumed): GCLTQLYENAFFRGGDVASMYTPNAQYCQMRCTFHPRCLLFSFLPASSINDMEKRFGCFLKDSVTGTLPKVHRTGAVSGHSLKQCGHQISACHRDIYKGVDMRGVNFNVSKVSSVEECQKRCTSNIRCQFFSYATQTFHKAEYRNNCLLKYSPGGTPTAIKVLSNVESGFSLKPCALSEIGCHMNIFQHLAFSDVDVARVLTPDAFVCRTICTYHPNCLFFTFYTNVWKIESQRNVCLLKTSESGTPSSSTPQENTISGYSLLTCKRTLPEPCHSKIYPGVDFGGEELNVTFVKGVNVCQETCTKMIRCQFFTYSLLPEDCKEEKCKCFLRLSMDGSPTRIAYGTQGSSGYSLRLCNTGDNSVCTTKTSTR
human activated kallikrein enzyme, sequence (P03952 391-638 limits assumed): as the sequence (P03952 391-638 limits assumed) above
human activated kallikrein enzyme, sequence (P03952 20-390 partner limits assumed): as the sequence (P03952 20-390 partner limits assumed) above

On to `O=C(Nc1cc(NCc2cn3cc(C4CC4)cc(N4CCNC4=O)c3n2)ncn1)[C@H]1C[C@@H]1c1cc(Cl)ccn1` [Example 394, (1S,2S)-2-(4-chloropyridin-2-yl)-N-(6-(((6-cyclopropyl-8-(2-oxoimidazolidin-1-yl)imidazo[1,2-a]pyridin-2-yl)methyl)amino)pyrimidin-4-yl)cyclopropane-1-carboxamide], for which the EC50 (commonly the concentration needed to bring the measured effect to its halfway point) in test [1] is less than 1 nM. Further, the IC90 – broadly, the concentration needed for an effect of 90% – in test [2] is 400 to 1500 nM.

Consider `O=C1CN(c2cc(C3CC3)cn3cc(CNc4cc(NC(=O)[C@H]5C[C@@H]5c5cc(Cl)ccn5)ncn4)nc23)C(=O)N1` [Example 395, (1S,2S)-2-(4-chloropyridin-2-yl)-N-(6-(((6-cyclopropyl-8-(2,4-dioxoimidazolidin-1-yl)imidazo[1,2-a]pyridin-2-yl)methyl)amino)pyrimidin-4-yl)cyclopropane-1-carboxamide], for which the EC50 in test [1] was less than 1 nM. Besides, in test [2], the IC90 is less than 400 nM.

In the case of `O=C1CN(c2cc(C3CC3)cn3cc(CNc4cc(NC(=O)[C@H]5C[C@@H]5c5cccc(Cl)c5)ncn4)nc23)C(=O)N1` [Example 396, (1S,2S)-2-(3-chlorophenyl)-N-(6-(((6-cyclopropyl-8-(2,4-dioxoimidazolidin-1-yl)imidazo[1,2-a]pyridin-2-yl)methyl)amino)pyrimidin-4-yl)cyclopropane-1-carboxamide], in test [1], the half-maximal effective concentration (EC50) was less than 1 nM. Moreover, in test [2], the 90% effect concentration (IC90) was in the range of 400 to 1500 nM.

Turning to `O=C(Nc1cc(NCc2cn3cc(C4CC4)cc(N4CC(=O)N(C5CC5)C4=O)c3n2)ncn1)[C@H]1C[C@@H]1c1cccc(Cl)c1` [Example 399, (1S,2S)-2-(3-chlorophenyl)-N-(6-(((6-cyclopropyl-8-(3-cyclopropyl-2,4-dioxoimidazolidin-1-yl)imidazo[1,2-a]pyridin-2-yl)methyl)amino)pyrimidin-4-yl)cyclopropane-1-carboxamide], the half-maximal effective concentration (EC50) in test [1] was 1 to 10 nM. For the same molecule, in test [2], the concentration for an effect of 90% (IC90) was in the range of 1500 to 10000 nM.

As to `CN1C(=O)CN(Cc2cc(C3CC3)cn3cc(CNc4cc(NC(=O)[C@H]5C[C@@H]5c5cccc(Cl)c5)ncn4)nc23)C1=O` [Example 400, (1S,2S)-2-(3-chlorophenyl)-N-(6-(((6-cyclopropyl-8-((3-methyl-2,4-dioxoimidazolidin-1-yl)methyl)imidazo[1,2-a]pyridin-2-yl)methyl)amino)pyrimidin-4-yl)cyclopropane-1-carboxamide], the EC50 in test [1] was 1 to 10 nM. Further, the concentration for an effect of 90% (IC90) in test [2] lay within 1500 to 10000 nM.

With `CN1CCC(O)(c2cc(C3CC3)cn3cc(CNc4cc(NC(=O)[C@H]5C[C@@H]5c5cccc(Cl)c5)ncn4)nc23)CC1` [Example 401, (1S,2S)-2-(3-chlorophenyl)-N-(6-(((6-cyclopropyl-8-(4-hydroxy-1-methylpiperidin-4-yl)imidazo[1,2-a]pyridin-2-yl)methyl)amino)pyrimidin-4-yl)cyclopropane-1-carboxamide], the EC50 in test [1] is less than 1 nM. In addition, in test [2], the 90% effect concentration (IC90) lay within 400 to 1500 nM.

For `CN1CC(F)(c2cc(C3CC3)cn3cc(CNc4cc(NC(=O)[C@H]5C[C@@H]5c5cccc(Cl)c5)ncn4)nc23)C1` [Example 402, (1S,2S)-2-(3-chlorophenyl)-N-(6-(((6-cyclopropyl-8-(3-fluoro-1-methylazetidin-3-yl)imidazo[1,2-a]pyridin-2-yl)methyl)amino)pyrimidin-4-yl)cyclopropane-1-carboxamide], the 50% effective concentration (EC50) in test [1] was less than 1 nM. In addition, in test [2], the IC90 was in the range of 400 to 1500 nM.

Take `CN1CCC(F)(c2cc(C3CC3)cn3cc(CNc4cc(NC(=O)[C@H]5C[C@@H]5c5cccc(Cl)c5)ncn4)nc23)CC1` [Example 403, (1S,2S)-2-(3-chlorophenyl)-N-(6-(((6-cyclopropyl-8-(4-fluoro-1-methylpiperidin-4-yl)imidazo[1,2-a]pyridin-2-yl)methyl)amino)pyrimidin-4-yl)cyclopropane-1-carboxamide]: the EC50 in test [1] was less than 1 nM. Moreover, the IC90 in test [2] was 400 to 1500 nM.

Turning to `CN1CC(=O)N(c2cc(C3CC3)cn3cc(CNc4cc(NC(=O)[C@H]5C[C@@H]5c5cccc(Cl)c5)ncn4)nc23)CC1=O` [Example 404, (1S,2S)-2-(3-chlorophenyl)-N-(6-(((6-cyclopropyl-8-(4-methyl-2,5-dioxopiperazin-1-yl)imidazo[1,2-a]pyridin-2-yl)methyl)amino)pyrimidin-4-yl)cyclopropane-1-carboxamide], the EC50 in test [1] is less than 1 nM. Also, the IC90 in test [2] lay in the range of 400 to 1500 nM.

With `COc1nc(NC(=O)[C@H]2C[C@@H]2c2nccc(C)n2)cc(N(C)Cc2cn3cc(C4CC4)cc(N4CC(=O)N(C)C4=O)c3n2)n1` [Example 406, (1S,2S)-N-(6-(((6-cyclopropyl-8-(3-methyl-2,4-dioxoimidazolidin-1-yl)imidazo[1,2-a]pyridin-2-yl)methyl)(methyl)amino)-2-methoxypyrimidin-4-yl)-2-(4-methylpyrimidin-2-yl)cyclopropane-1-carboxamide], the 50% effective concentration (EC50) in test [1] is less than 1 nM. In addition, in test [2], the IC90 is less than 400 nM.

On to `COc1nc(NC(=O)[C@H]2C[C@@H]2c2nccc(C)n2)cc(N[C@H](C)c2cn3cc(C4CC4)cc(N4CC(=O)N(C)C4=O)c3n2)n1` [Example 407, (1S,2S)-N-(6-(((R)-1-(6-cyclopropyl-8-(3-methyl-2,4-dioxoimidazolidin-1-yl)imidazo[1,2-a]pyridin-2-yl)ethyl)amino)-2-methoxypyrimidin-4-yl)-2-(4-methylpyrimidin-2-yl)cyclopropane-1-carboxamide], for which, in test [1], the EC50 is less than 1 nM. Further, in test [2], the concentration for an effect of 90% (IC90) is 400 to 1500 nM.

With `Cc1ccnc([C@H]2C[C@@H]2C(=O)Nc2cc(N(C)Cc3cn4cc(C5CC5)cc(N5CC(=O)NC5=O)c4n3)nc(C3CC3)n2)n1` [Example 408, (1S,2S)-N-(2-cyclopropyl-6-(((6-cyclopropyl-8-(2,4-dioxoimidazolidin-1-yl)imidazo[1,2-a]pyridin-2-yl)methyl)(methyl)amino)pyrimidin-4-yl)-2-(4-methylpyrimidin-2-yl)cyclopropane-1-carboxamide], the half-maximal effective concentration (EC50) in test [1] fell in the range of 1 to 10 nM. For the same molecule, the 90% effect concentration (IC90) in test [2] fell in the range of 400 to 1500 nM.

For the molecule `Cc1ccnc([C@H]2C[C@@H]2C(=O)Nc2cc(NCc3cn4cc(C5CC5)cc(N5CC(=O)N(C)C5=O)c4n3)nc(C3CC3)n2)n1` [Example 410, (1S,2S)-N-(2-cyclopropyl-6-(((6-cyclopropyl-8-(3-methyl-2,4-dioxoimidazolidin-1-yl)imidazo[1,2-a]pyridin-2-yl)methyl)amino)pyrimidin-4-yl)-2-(4-methylpyrimidin-2-yl)cyclopropane-1-carboxamide], the EC50 in test [1] was less than 1 nM. In addition, the 90% effect concentration (IC90) in test [2] was less than 400 nM.

For `COc1cc(N2CC(=O)N(C)C2=O)c2nc([C@@H](C)Nc3cc(NC(=O)[C@H]4C[C@@H]4c4nccc(C)n4)ncn3)cn2c1` [Example 415, (1S,2S)-N-(6-(((R)-1-(6-methoxy-8-(3-methyl-2,4-dioxoimidazolidin-1-yl)imidazo[1,2-a]pyridin-2-yl)ethyl)amino)pyrimidin-4-yl)-2-(4-methylpyrimidin-2-yl)cyclopropane-1-carboxamide], in test [1], the EC50 was less than 1 nM. The IC90 in test [2] was less than 400 nM.

Consider `Cc1ccnc([C@H]2C[C@@H]2C(=O)Nc2cc(N[C@H](C)c3cn4cc(C5CC5)cc(N5CCCC5=O)c4n3)ncn2)n1` [Example 418, (1S,2S)-N-(6-(((R)-1-(6-cyclopropyl-8-(2-oxopyrrolidin-1-yl)imidazo[1,2-a]pyridin-2-yl)ethyl)amino)pyrimidin-4-yl)-2-(4-methylpyrimidin-2-yl)cyclopropane-1-carboxamide], for which, in test [1], the half-maximal effective concentration (EC50) is less than 1 nM. For the same molecule, in test [2], the 90% effect concentration (IC90) is less than 400 nM.

On to `Cc1cc(N2CC(=O)N(C)C2=O)c2nc([C@@H](C)Nc3cc(NC(=O)[C@H]4C[C@@H]4c4nccc(C)n4)ncn3)cn2c1` [Example 423, (1S,2S)-N-(6-(((R)-1-(6-methyl-8-(3-methyl-2,4-dioxoimidazolidin-1-yl)imidazo[1,2-a]pyridin-2-yl)ethyl)amino)pyrimidin-4-yl)-2-(4-methylpyrimidin-2-yl)cyclopropane-1-carboxamide], for which, in test [1], the 50% effective concentration (EC50) is less than 1 nM. The concentration for an effect of 90% (IC90) in test [2] is less than 400 nM.

On to `Cc1ccnc([C@H]2C[C@@H]2C(=O)Nc2cc(N[C@H](C)c3cn4cc(C5(F)CC5)cc(N5CC(=O)N(C)C5=O)c4n3)ncn2)n1` [Example 424, (1S,2S)-N-(6-(((R)-1-(6-(1-fluorocyclopropyl)-8-(3-methyl-2,4-dioxoimidazolidin-1-yl)imidazo[1,2-a]pyridin-2-yl)ethyl)amino)pyrimidin-4-yl)-2-(4-methylpyrimidin-2-yl)cyclopropane-1-carboxamide], for which, in test [1], the half-maximal effective concentration (EC50) is less than 1 nM. Besides, the IC90 in test [2] is 400 to 1500 nM.

Regarding `Cc1cc(N2CC(=O)N(C)C2=O)c2nc([C@@H](C)Nc3cc(NC(=O)[C@H]4C[C@@H]4c4nccc(C)n4)nc(C)n3)cn2c1` [Example 434, (1S,2S)-N-(2-methyl-6-(((R)-1-(6-methyl-8-(3-methyl-2,4-dioxoimidazolidin-1-yl)imidazo[1,2-a]pyridin-2-yl)ethyl)amino)pyrimidin-4-yl)-2-(4-methylpyrimidin-2-yl)cyclopropane-1-carboxamide], the EC50 in test [1] was less than 1 nM. The 90% effect concentration (IC90) in test [2] is less than 400 nM.

Take `Cc1ccnc([C@H]2C[C@@H]2C(=O)Nc2cc(N[C@H](C)c3cn4cc(C5CC5)cc(N5CC6(COC6)OC5=O)c4n3)nc(C)n2)n1` [Example 437, (1S,2S)-N-(6-(((R)-1-(6-cyclopropyl-8-(6-oxo-2,5-dioxa-7-azaspiro[3.4]octan-7-yl)imidazo[1,2-a]pyridin-2-yl)ethyl)amino)-2-methylpyrimidin-4-yl)-2-(4-methylpyrimidin-2-yl)cyclopropane-1-carboxamide]: the EC50 in test [1] was less than 1 nM. Moreover, the concentration for an effect of 90% (IC90) in test [2] was less than 400 nM.
